Here are results for two molecules from paper PMC3871574, “Genes Involved in Degradation of para-Nitrophenol Are Differentially Arranged in Form of Non-Contiguous Gene Clusters in Burkholderia sp. strain SJ98” (PLoS ONE, 2013).

For this assay, the system named is PnpA (His-6-PnpA; p-nitrophenol 4-monooxygenase, PnpM). Put plainly: spectrophotometric monooxygenase assay, Michaelis-Menten. It counts as biochemical, Burkholderia sp. SJ98. The source says: spectrophotometric monooxygenase assay, Michaelis-Menten on PnpA (His-6-PnpA; p-nitrophenol 4-monooxygenase, PnpM)

Where two headings read alike, the source gives them in different places.

On to `NC(=O)C1=CN([C@@H]2O[C@H](COP(=O)(O)OP(=O)(O)OC[C@H]3O[C@@H](n4cnc5c(N)ncnc54)[C@H](O)[C@@H]3O)[C@@H](O)[C@H]2O)C=CC1` [NADH], for which the Michaelis constant (Km) came out at 96 ± 7.74 µM. `O=[N+]([O-])c1ccc(O)cc1` [PNP, p-nitrophenol]: for the setting “fixed NADH, 0.02 mM FAD, 50 mM phosphate pH 7.4, PNP 12.5-250 µM”, the Km was 35.4 ± 5.95 µM.

In general, Km refers to the substrate concentration at which the rate is half of its maximum.
